Earlier results on two compounds are cited in publication PMC7029871, “Development and validation of a sensitive LC-MS/MS method for the quantitation of IMB-YH-4py5-2H, an antituberculosis candidate, and its application to the pharmacokinetic study” (PLoS ONE, 2020).

Molecules are shown by their SMILES. Read-outs that look alike come from different tables or passages of the source.

The subject of this series is Mycobacterium tuberculosis strains. The settings on record: cited from earlier work.

For the compound `CN(C)C(=O)/C=C/C(=O)c1ccc(-c2ccncc2)cc1.Cl` [IMB-YH-4py5-2H, (E)-N,N-dimethyl-4-oxo-4-(4-(pyridin-4-yl)phenyl)but-2-enamide hydrochloride], the MICs (sensitive and resistant M. tuberculosis strains, method and reference not given) was 0.25 to 0.5 µg/mL.

On to `COC(=O)/C=C/C(=O)c1ccc(OC)cc1` [YH-8, (E)-Methyl-4-aryl-4-oxabut-2-enoate, reference compound], for which the MICs (drug-sensitive and drug-resistant M. tuberculosis strains) was 0.25 to 1 µg/mL.
